Data from ChEMBL document CHEMBL3046022, “Synthesis and pharmacological screening of some novel chalconyl derivatives of substituted phenyl semicarbazide” (2011).

Experiments:
Type in all cases: functional
Conditions in all cases: route intraperitoneal
Mus musculus [1] = test: Anticonvulsant activity in Mus musculus albino (mouse) assessed as protection against maximal electroshock-induced seizures at 30 mg/kg, ip administered 30 min prior to electro shock-challenge measured for 2 min relative to phenytoin
Mus musculus [2] = test: Anticonvulsant activity in Mus musculus albino (mouse) assessed as protection against maximal electroshock-induced seizures at 30 mg/kg, ip administered 30 min prior to electro shock-challenge measured for 2 min relative to control
Mus musculus [3] = test: Anticonvulsant activity in Mus musculus albino (mouse) assessed as protection against maximal electroshock-induced seizures at 25 mg/kg, ip administered 30 min prior to electro shock-challenge measured for 2 min relative to control

Structure (SMILES) | Activity (Mus musculus [1]) [%] | Activity (Mus musculus [2]) [%] | Activity (Mus musculus [3]) [%]
COc1ccc(/C=C/C(=N\NC(=O)Nc2ccc(Br)cc2)c2ccccc2O)cc1 | 64.34 | 51.44 | 
CN(C)c1ccc(/C=C/C(=N\NC(=O)Nc2ccc(Br)cc2)c2ccccc2O)cc1 | 38.71 | 30.95 | 
O=C(N/N=C(\C=C\c1ccccc1O)c1ccc(O)cc1O)Nc1ccc(Br)cc1 | 91.21 | 72.93 | 
CN(C)c1ccc(/C=C/C(=N\NC(=O)Nc2ccc(Br)cc2)c2ccc(O)cc2O)cc1 | 30.35 | 24.27 | 
O=C(N/N=C(\C=C\c1ccccc1O)c1ccccc1O)Nc1ccc(Br)cc1 | 81.06 | 64.81 | 
O=C(N/N=C(\C=C\c1ccccc1O)c1cc(O)ccc1O)Nc1ccc(Br)cc1 | 94 | 75.16 | 
O=C(N/N=C(\C=C\c1ccc(O)cc1)c1cc(O)ccc1O)Nc1ccc(Br)cc1 | 95.82 | 76.61 | 
COc1ccc(/C=C/C(=N\NC(=O)Nc2ccc(Br)cc2)c2cc(O)ccc2O)cc1 | 49.71 | 39.75 | 
O=C(N/N=C(\C=C\c1ccccc1)c1ccccc1O)Nc1ccc(F)cc1 | 28.96 | 23.16 | 
O=C(N/N=C(\C=C\c1ccc(O)cc1)c1ccccc1O)Nc1ccc(F)cc1 | 87.74 | 70.15 | 
COc1ccc(/C=C/C(=N\NC(=O)Nc2ccc(F)cc2)c2ccccc2O)cc1 | 66.42 | 53.11 | 
CN(C)c1ccc(/C=C/C(=N\NC(=O)Nc2ccc(F)cc2)c2ccccc2O)cc1 | 45.26 | 36.19 | 
O=C(N/N=C(\C=C\c1ccccc1O)c1ccc(O)cc1O)Nc1ccc(F)cc1 | 92.62 | 74.05 | 
CN(C)c1ccc(/C=C/C(=N\NC(=O)Nc2ccc(F)cc2)c2ccc(O)cc2O)cc1 | 37.04 | 29.62 | 
O=C(N/N=C(\C=C\c1ccccc1O)c1ccccc1O)Nc1ccc(F)cc1 | 83.56 | 66.81 | 
O=C(N/N=C(\C=C\c1ccccc1O)c1cc(O)ccc1O)Nc1ccc(F)cc1 | 94.98 | 75.94 | 
O=C(N/N=C(\C=C\c1ccc(O)cc1)c1cc(O)ccc1O)Nc1ccc(F)cc1 | 99.72 | 79.73 | 
COc1ccc(/C=C/C(=N\NC(=O)Nc2ccc(F)cc2)c2cc(O)ccc2O)cc1 | 56.54 | 45.21 | 
O=C(N/N=C(\C=C\c1ccccc1)c1ccccc1O)Nc1ccc(Br)cc1 | 28.26 | 22.6 | 
O=C(N/N=C(\C=C\c1ccc(O)cc1)c1ccccc1O)Nc1ccc(Br)cc1 | 84.95 | 67.92 | 
O=C1NC(=O)C(c2ccccc2)(c2ccccc2)N1 [PHENYTOIN] |  |  | 79.95
